According to patent EP0412760A2, “Benzopyran derivatives” (Beecham Group p.l.c., priority 1989, dated 1991):

How the values were obtained:
[1] = system: Spontaneously hypertensive rats; assay: Antihypertensive activity: systolic blood pressure by tail cuff method; assay type: in vivo; conditions: dose of 0.05 mg/kg p.o.
Procedure: Systolic blood pressures were recorded by a modification of the tail cuff method described by I.M. Claxton, M.G. Palfreyman, R.H. Poyser, R.L. Whiting, European Journal of Pharmacology, 37, 179 (1976). A W+W BP recorder, model 8005 was used to display pulses. Prior to all measurements rats were placed in a heated environment (33.5 ± 0.5°C) before transfer to a restraining cage. The determination of blood pressure was the mean of 5 readings. Spontaneously hypertensive rats (ages 12-18 weeks) with systolic blood pressures >180 mmHg were considered hypertensive.

[2] = system: trachea; assay: Bronchodilator activity: relaxation of isolated trachea spirals; assay type: cell-based, guinea pigs; conditions: Cavia porcellus; fall in resting tension as percentage of total relaxation evoked by 10⁻³M isoprenaline; guinea pig trachea spirals, Krebs solution at 37°C; read-out: IC₅₀
Procedure: Male guinea pigs (300-600g) were stunned by a blow to the head and bled from the carotid artery. The trachea was exposed, dissected free of connective tissue, and transferred to oxygenated Krebs solution at 37 °C. Next, spirals (2 per trachea) were prepared by cutting the whole trachea spirally along its longitudinal axis and then dividing this spiral lengthwise. Each preparation was mounted, using silk thread, in a 10ml organ bath filled with Krebs solution at 37 °C and bubbled with 5% CO₂ with O₂. The resting tension of the preparations was set at 2g and changes in muscle tension were monitored isometrically by means of a UFI (2oz) force and displacement transducer (Ormed Ltd) connected to a Linseis pen recorder. All preparations were allowed to equilibrate for 60 minutes. During this equilibration period the preparations were washed by upward displacement at 15 minute intervals and, if necessary, the resting tension was readjusted to 2g using a mechanical micromanipulator system.
Once a steady resting tension had been obtained, the preparations were dosed simultaneously with the test compound (10⁻⁸-2x10⁻⁵M), and finally a maximum relaxation achieved by addition of 10⁻³M isoprenaline. The fall in tension evoked by the test compound was expressed as a percentage of the total relaxation evoked in the presence of 10⁻³ isoprenaline. […]

- IC50 [2]: 230 nM
SMILES: CCc1ccc2c(c1)[C@@H](N1CCCCC1=O)[C@H](O)C(C)(C)O2 [compound of formula (I), 3,4-Dihydro-2,2-dimethyl-6-ethyl-4R-(2-oxopiperidin-1-yl)-2H-1-benzopyran-3S-ol]
- maximum fall in blood pressure [1]: 19%
